Experimental data reported in BindingDB's records for doi:10.1016/j.bmc.2019.115235 (Shandong University, 2020).

Legend:
[1] = biological target: T1, Hypoxia-inducible factor 1-alpha (Homo sapiens, UniProt Q16665); assay: […] of HIF1 in human T47D cells after 30 mins by luciferase reporter gene assay
[2] = biological target: T1, Hypoxia-inducible factor 1-alpha; assay: […] of HIF1 in human T47D cells

T1 sequence (Q16665 whole entry): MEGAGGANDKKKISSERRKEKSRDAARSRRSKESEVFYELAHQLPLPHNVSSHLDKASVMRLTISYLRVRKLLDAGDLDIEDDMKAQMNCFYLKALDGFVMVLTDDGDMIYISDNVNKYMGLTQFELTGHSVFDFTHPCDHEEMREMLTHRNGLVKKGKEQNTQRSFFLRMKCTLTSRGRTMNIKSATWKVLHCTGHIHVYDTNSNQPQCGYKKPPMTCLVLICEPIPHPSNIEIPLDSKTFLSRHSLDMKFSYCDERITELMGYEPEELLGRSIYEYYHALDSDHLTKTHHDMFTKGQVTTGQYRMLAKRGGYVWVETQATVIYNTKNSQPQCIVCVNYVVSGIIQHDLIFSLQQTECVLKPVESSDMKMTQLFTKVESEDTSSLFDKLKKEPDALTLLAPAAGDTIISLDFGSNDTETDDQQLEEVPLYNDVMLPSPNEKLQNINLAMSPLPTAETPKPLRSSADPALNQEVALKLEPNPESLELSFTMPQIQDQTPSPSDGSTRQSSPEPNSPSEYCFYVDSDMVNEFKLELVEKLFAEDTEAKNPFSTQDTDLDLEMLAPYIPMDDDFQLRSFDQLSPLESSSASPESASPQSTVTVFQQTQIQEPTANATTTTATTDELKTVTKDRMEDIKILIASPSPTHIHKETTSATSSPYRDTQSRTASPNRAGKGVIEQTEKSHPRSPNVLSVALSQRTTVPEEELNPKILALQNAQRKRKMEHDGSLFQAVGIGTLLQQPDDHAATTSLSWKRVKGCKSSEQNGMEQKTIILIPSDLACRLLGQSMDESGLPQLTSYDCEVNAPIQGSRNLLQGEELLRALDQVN

| Compound | IC50 [1] | IC50 [2] |
| --- | --- | --- |
| COc1ccc([C@@H](O)[C@@H](C)Oc2ccc([C@@H]3CC[C@H](c4ccc(O[C@H](C)[C@H](O)c5ccc(OC)c(OC)c5)c(OC)c4)C3)cc2OC)cc1OC | 3 nM | – |
| COc1ccc([C@@H](O)[C@@H](C)Oc2ccc([C@H]3O[C@H](c4ccc(OC)c(OC)c4)[C@H](C)[C@H]3C)cc2OC)cc1OC | – | 20 nM |
